Measurements taken from US20240082260A1, “INHIBITOR OF PROTEIN KINASE D FOR USE IN PREVENTION OR TREATMENT OF HYPERLIPIDEMIA” (priority 2021, published 2024).

Assays:
Caco2 cells = assay: Lipid transport (14C-fatty acid release) through Caco2 monolayer in transwell system; assay type: cell-based, human; conditions: 20 μM, 24 h, vs DMSO; FIG. 8
Experimental: Lipid transport studies were assessed in Caco2 cells seeded in trans-wells. 1.5×10^5 cells were seeded into a 12-well cell culture insert of 1 μm pore size Trans-well and maintained in for 14 consecutive days with media change every two days. For the lipids uptake and release, the apical side of the membrane was loaded with radioactive ^14C-palmitic acid (0.2 μCi), oleic acid (1 mM), and taurocholic acid (2 mM) in DMEM high glucose 10% FBS. The basal medium contained DMEM high glucose 0.1% FBS. After 24 hours of incubation, cell lysates and the apical and basolateral medium was collected and the ^14C-palmitic acid was measured in a scintillation counter for aliquots of apical and basal medium and for cell lysate. The same protocol was used in Caco2 cells that were treated with CRT0066101 (3 and 5 μM) for 24 h (added together with the mentioned radioactive fatty acid cocktail).
In order to test the potential of PKD inhibitors to restrict lipid transport via epithelial monolayer, we employed Caco2 cells seeded into the Transwells system. Briefly, we plated 1.5×10^5 cells seeded into a 12-well cell culture inserts of 1-μm pore size Transwell and maintained in for 14 consecutive days with media change every 2 days. For the lipid uptake and release, the apical side of the membrane was loaded with radioactive 14C-palmitic acid (0.2 μCi), oleic acid (1 mM), and taurocholic acid (2 mM) in DMEM high glucose 10% FBS. The basal medium contained DMEM high glucose 0.1% FBS. After 24 h of incubation, cell lysates and the apical and basolateral medium were collected and the 14C-palmitic acid was measured in a scintillation counter for aliquots of apical and basal medium and for cell lysate. To assess the efficiency of different PKD inhibitors, Caco2 cells were treated with either CRT0066101 (5 μM), CID2011756 (20 μM), CID755673 (20 μM), 1-NM-PP1 (20 μM), or control solvent solution (DMSO) for 24 h (added together with the mentioned radioactive FA cocktail).

male C57BL/6 mice on HFD = assay: Oral PKD inhibitor in HFD-fed C57BL/6 mice (diet-induced obesity and diabetes); assay type: in vivo, mouse; conditions: oral administration, mice; also said to prevent hyperlipidemia and diabetes and improve microflora
Experimental: Mice body weight development was closely monitored and reported here on a weekly basis when mice were on a specified diet. All experiments were performed in male mice.
PKD inhibitor CRT0066101 was dissolved in water (10 mg/kg) and administered orally to the mice by daily gavage, while the control mice were gavaged with water. Mice were maintained on the specified diets and had ab libitum access to food and water. C57BL/6 mice were administered CRT inhibitor treatment at 4-weeks of age, while for the rescue experiment, inhibitor was given under the same circumstances but treatment started only after 7 weeks of HFD feeding. Intestinal barrier permeability was further assessed 1 hour after oral gavage of FITC-Dextran 4.
Energy expenditure, food intake, and activity measurements were obtained in a PhenoMaster (TSE Systems) as previously described (El-Merahbi, Viera et al., 2020, Trujillo Viera, El-Merahbi et al., 2016). Briefly, mice were kept in separate metabolic cages with unlimited access to water and to the specified diet. After 48 hours of acclimation, data was collected every 10 min including photobeam breaks, oxygen consumption, carbon dioxide dissipation, and food and water consumption. Results in bars represent the average of each night/day cycle.
A glucose tolerance test (GTT) was performed after overnight fasting. Mice blood glucose was assessed before and 15, 30, 60, 90, and 120 minutes after intraperitoneal injection of glucose (2 g/kg). For the Insulin tolerance test (ITT), the same measurements were performed after 4 hours of fasting and intraperitoneal injection of 0.5 U/kg of recombinant insulin. For glucose measurements, one blood drop was drawn from the tail tip into a test strip and measured with a glucometer (Accu-Chek® Roche).
Lipids tolerance test was performed as described previously (Wang, Rong et al., 2016b). Briefly, overnight fasted mice were gavaged with olive oil (10 μL/g body weight). Blood was collected at indicated times for measurement of serum triglycerides content. For lipids absorption under tyloxapol treatment, 250 μg/g of body weight were i.p. injected to mice 30 minutes before the gavage of olive oil 5 μL/g body weight.
Liver triglycerides were measured by homogenization of 50 mg of liver in 500 uL of lysis buffer and lipids extraction in methanol:chloroform, phase extraction and evaporation. The lipids were redissolved in DMSO and triglycerides quantified with the mentioned kit and according to the manufacturers' instructions.
The bedding of single-caged mice was collected and the ingested food ingestion from the individual mice was assessed. All the stools were manually collected. After overnight dissecation at 60° C., the samples were weighted and frozen for further analysis. The amount of feces produced per mouse was compared to the amount of food consumed and the weight gain. About 3 g of dried feces material were homogenized and 1 g was pressed into a tablet and accurately weighted. Calorie content from feces and diet was measured in duplicates in a 6400 Automatic Isoperibol calorimeter (Parr Instrument Company). To analyze energy excreted, the amount of energy in feces was compared to the amount of energy ingested (the product between grams of food and caloric content of the food). Lipids extraction from feces was performed as previously described (Kraus, Yang et al., 2015).
Proteins from tissues and cell culture were extracted with RIPA buffer supplemented with phosphatase and protease inhibitor (PPI, Thermo Fisher Scientific). Protein concentration was measured by Pierce™ BCA Protein Assay Kit (Thermo Fisher Scientific) following the manufacturer's protocol. Reduced protein extracts were separated on 10% SDS-PAGE gels by electrophoresis and transferred to PVDF membranes under wet transfer. Membranes were blocked in 5% (w/v) milk in TBS-T before overnight probing with indicated primary antibodies at 4° C., followed by TBS-T washes and incubation with corresponding secondary antibody.

LDLR-deficient mice = conditions: cited from earlier work

Row | Compound | lipid transport through the Caco2 monolayer (Caco2 cells) | obesity induced by a high-fat diet (summary statement) (male C57BL/6 mice on HFD) | course of atherosclerosis (LDLR-deficient mice)
1 | O=C1NCCCc2c1oc1ccc(O)cc21 [CID755673] | significant reduction in lipid transport | significantly reduces obesity induced by a high-fat diet | –
2 | O=C(Nc1ccc(CN2CCOCC2)cc1)c1ccc(-c2cccc(Cl)c2)o1 [CID2011756] | significant reduction in lipid transport | – | –
3 | CC(C)(C)n1nc(Cc2cccc3ccccc23)c2c(N)ncnc21 [1-NM-PP1, 1-(tert-butyl)-3-(nafthalen-1-ylmethyl)-1H-pirazol[3,4-d]pyrimidine-4-amine] | significant reduction in lipid transport | – | –
4 | CC(C)c1c(C(=O)Nc2ccccc2)c(-c2ccccc2)c(-c2ccc(F)cc2)n1CC[C@@H](O)C[C@@H](O)CC(=O)O [Atorvastatin] | – | – | efficiently attenuating the course of atherosclerosis
